Data published in patent US12173018B2, “Penicillin-binding protein inhibitors” (priority 2018, dated 2024).
≈ marks a conversion by molar mass, not a printed value. Like-named read-outs stand apart in the source and are kept apart here.

Tests used:
E. coli ATCC 25922 = assay: Broth microdilution MIC, E. coli ATCC 25922; type: cell-based; conditions: Escherichia coli, ATCC25922; E. coli ATCC 25922, broth microdilution; read-out: MIC E. coli 25922
Outline: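 MIC = lowest concentration showing no visible growth after 16-20 h at 37° C. Cation-adjusted MH broth, 2-fold serial dilutions, starting inoculum 5×10^5 CFU/mL, per CLSI methods.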

[1] = tested on: N. gonorrhoeae ATCC 49226; assay: Liquid broth MIC, N. gonorrhoeae ATCC 49226; type: cell-based; conditions: Neisseria gonorrhoeae, ATCC49226; N. gonorrhoeae ATCC 49226, liquid broth; read-out: Minimum Inhibitory Concentration, N. gonorrhoeae ATCC 49226
Outline: (§1)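 Visual MIC: lowest concentration well showing no bacterial growth after 40-42 h at 36° C in 5% CO2. Inoculum 5×10^5 CFU/mL from colonies swabbed into GC broth, set by OD600; compounds in 2-fold serial dilution.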

N. gonorrhoeae FA19 = assay: Liquid broth MIC, N. gonorrhoeae FA19; type: cell-based; conditions: Neisseria gonorrhoeae; N. gonorrhoeae FA19, liquid broth; read-out: Minimum Inhibitory Concentration, N. gonorrhoeae FA19
Outline: as §1

E. coli AG100 = assay: Broth microdilution MIC, E. coli AG100 (wild-type parent); type: cell-based; conditions: Escherichia coli; wild-type parent E. coli AG100, broth microdilution; read-out: MIC E. coli AG100
Outline: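 Starting inoculum of 5×10^5 CFU/mL, from colonies grown 3-5 h in Mueller-Hinton broth with divalent cations, added to two-fold compound dilution series.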

N. gonorrhoeae FA1090 = assay: Liquid broth MIC, N. gonorrhoeae FA1090; type: cell-based; conditions: Neisseria gonorrhoeae; N. gonorrhoeae FA1090, liquid broth; read-out: Minimum Inhibitory Concentration, N. gonorrhoeae FA1090
Outline: as §1

E. coli PBP3 = E. coli PBP3 (Escherichia coli (strain K12), UniProt P0AD68); assay: E. coli PBP3 Bocillin-FL fluorescence polarization competition binding assay
Outline: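 Purified PBP (1.5 μM final) was combined with test compound (0–1000 μM) and Bocillin-FL (fluorescent penicillin V, 0.1 μM final) in 50 mM Hepes pH 8.0, 300 mM NaCl, 5% glycerol.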

[2] = fluorescence polarization competition binding with Bocillin-FL, read-out: E. coli K12 PBP3 Potency

Chain of E. coli PBP3 (P0AD68 whole entry): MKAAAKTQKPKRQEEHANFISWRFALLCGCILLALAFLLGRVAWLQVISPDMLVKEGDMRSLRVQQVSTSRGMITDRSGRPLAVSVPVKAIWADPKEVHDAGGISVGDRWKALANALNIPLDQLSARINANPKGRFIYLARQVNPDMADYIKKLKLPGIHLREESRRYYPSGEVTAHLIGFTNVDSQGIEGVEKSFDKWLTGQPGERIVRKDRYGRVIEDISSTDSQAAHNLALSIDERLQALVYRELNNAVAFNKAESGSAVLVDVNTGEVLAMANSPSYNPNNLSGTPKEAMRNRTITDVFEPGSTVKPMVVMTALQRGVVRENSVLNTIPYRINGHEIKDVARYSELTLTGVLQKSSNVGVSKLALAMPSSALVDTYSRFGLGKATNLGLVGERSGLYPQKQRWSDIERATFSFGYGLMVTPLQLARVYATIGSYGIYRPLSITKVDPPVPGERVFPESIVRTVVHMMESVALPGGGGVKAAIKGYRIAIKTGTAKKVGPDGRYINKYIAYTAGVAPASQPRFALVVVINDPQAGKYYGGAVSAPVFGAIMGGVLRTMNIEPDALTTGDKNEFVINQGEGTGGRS

| Structure (SMILES) | MIC (E. coli ATCC 25922) | MIC [1] | MIC (N. gonorrhoeae FA19) | MIC (E. coli AG100) | MIC (N. gonorrhoeae FA1090) | EC50 (E. coli PBP3; [2]) | EC50 (E. coli PBP3) |
| --- | --- | --- | --- | --- | --- | --- | --- |
| CCN1C[C@H](CO)N(C(=O)NC(C(=O)N[C@H]2Cc3ccc(F)c(C(=O)O)c3OB2O)c2ccc(O)c(O)c2Cl)C(=O)C1=O (stereo partly drawn) [Example 237, (3R)-3-(2-(2-chloro-3,4-dihydroxyphenyl)-2-((R)-4-ethyl-6-(hydroxymethyl)-2,3-dioxopiperazine-1-carboxamido)acetamido)-7-fluoro-2-hydroxy-3,4-dihydro-2H-benzo[e][1,2]oxaborinine-8-carboxylic acid] | 2 to 4 µg/mL | 4 to 8 µg/mL (≈ 6.42 to 12.8 µM) | 4 to 8 µg/mL (≈ 6.42 to 12.8 µM) | 0.5 to 1 µg/mL | 1 to 2 µg/mL (≈ 1.61 to 3.21 µM) | < 30 µM | – |
| CCN1C[C@H](C)N(C(=O)NC(C(=O)N[C@H]2Cc3ccc(F)c(C(=O)O)c3OB2O)c2ccc(O)c(O)c2Cl)C(=O)C1=O (stereo partly drawn) [Example 206, (3R)-3-(2-(2-chloro-3,4-dihydroxyphenyl)-2-((S)-4-ethyl-6-methyl-2,3-dioxopiperazine-1-carboxamido)acetamido)-7-fluoro-2-hydroxy-3,4-dihydro-2H-benzo[e][1,2]oxaborinine-8-carboxylic acid] | 2 to 4 µg/mL | 4 to 8 µg/mL (≈ 6.59 to 13.2 µM) | 4 to 8 µg/mL (≈ 6.59 to 13.2 µM) | 0.5 to 1 µg/mL | 0.25 to 0.5 µg/mL (≈ 0.412 to 0.824 µM) | < 30 µM | – |
| CCN1CCN(C(=O)NC(C(=O)N[C@H]2Cc3cccc(C(=O)O)c3OB2O)c2ccc(S(N)(=O)=O)c(F)c2)C(=O)C1=O (stereo partly drawn) [Example 210, (3R)-3-(2-(4-ethyl-2,3-dioxopiperazine-1-carboxamido)-2-(3-fluoro-4-sulfamoylphenyl)acetamido)-2-hydroxy-3,4-dihydro-2H-benzo[e][1,2]oxaborinine-8-carboxylic acid] | 8 to 16 µg/mL | 4 to 8 µg/mL (≈ 6.61 to 13.2 µM) | 1 to 2 µg/mL (≈ 1.65 to 3.3 µM) | 32 to 64 µg/mL | < 0.125 µg/mL | – | 30 to 500 µM |
| NS(=O)(=O)c1ccc(C(NC(=O)N2CCN(CCF)C(=O)C2=O)C(=O)N[C@H]2Cc3ccc(F)c(C(=O)O)c3OB2O)cc1 (stereo partly drawn) [Example 182, (3R)-7-fluoro-3-(2-(4-(2-fluoroethyl)-2,3-dioxopiperazine-1-carboxamido)-2-(4-sulfamoylphenyl)acetamido)-2-hydroxy-3,4-dihydro-2H-benzo[e][1,2]oxaborinine-8-carboxylic acid] | > 128 µg/mL | 4 to 8 µg/mL (≈ 6.42 to 12.8 µM) | 4 to 8 µg/mL (≈ 6.42 to 12.8 µM) | > 128 µg/mL | 1 to 2 µg/mL (≈ 1.6 to 3.21 µM) | – | 30 to 500 µM |
| CCN1CCN(C(=O)N[C@@H](C(=O)N[C@H]2Cc3ccc(F)c(C(=O)O)c3OB2O)c2ccc(O)c(F)c2)C(=O)C1=O [Example 161, (R)-3-((R)-2-(4-ethyl-2,3-dioxopiperazine-1-carboxamido)-2-(3-fluoro-4-hydroxyphenyl)acetamido)-7-fluoro-2-hydroxy-3,4-dihydro-2H-benzo[e][1,2]oxaborinine-8-carboxylic acid] | > 128 µg/mL | 1 to 2 µg/mL (≈ 1.78 to 3.57 µM) | 1 to 2 µg/mL (≈ 1.78 to 3.57 µM) | > 128 µg/mL | < 0.125 µg/mL | < 30 µM | – |
| CCN1CCN(C(=O)NC(C(=O)N[C@H]2Cc3ccc(F)c(C(=O)O)c3OB2O)c2ccc(S(N)(=O)=O)cc2)C(=O)C1=O (stereo partly drawn) [Example 181, (3R)-3-(2-(4-ethyl-2,3-dioxopiperazine-1-carboxamido)-2-(4-sulfamoylphenyl)acetamido)-7-fluoro-2-hydroxy-3,4-dihydro-2H-benzo[e][1,2]oxaborinine-8-carboxylic acid] | > 128 µg/mL | 4 to 8 µg/mL (≈ 6.61 to 13.2 µM) | 4 to 8 µg/mL (≈ 6.61 to 13.2 µM) | > 128 µg/mL | 1 to 2 µg/mL (≈ 1.65 to 3.3 µM) | – | 30 to 500 µM |
| CNCCN1CCN(C(=O)NC(C(=O)N[C@H]2Cc3cccc(C(=O)O)c3OB2O)c2ccc(O)c(O)c2Cl)C(=O)C1=O (stereo partly drawn) [Example 239, (3R)-3-(2-(2-chloro-3,4-dihydroxyphenyl)-2-(4-(2-(methylamino)ethyl)-2,3-dioxopiperazine-1-carboxamido)acetamido)-2-hydroxy-3,4-dihydro-2H-benzo[e][1,2]oxaborinine-8-carboxylic acid] | 32 to 64 µg/mL | > 64 µg/mL | > 64 µg/mL | 2 to 4 µg/mL | 4 to 8 µg/mL (≈ 6.62 to 13.2 µM) | – | 30 to 500 µM |
| NCCN1CCN(C(=O)N[C@@H](C(=O)N[C@H]2Cc3ccc(F)c(C(=O)O)c3OB2O)c2ccc(O)c(O)c2Cl)C(=O)C1=O [Example 227, (R)-3-((R)-2-(4-(2-aminoethyl)-2,3-dioxopiperazine-1-carboxamido)-2-(2-chloro-3,4-dihydroxyphenyl)acetamido)-7-fluoro-2-hydroxy-3,4-dihydro-2H-benzo[e][1,2]oxaborinine-8-carboxylic acid] | 0.5 to 1 µg/mL | 4 to 8 µg/mL (≈ 6.58 to 13.2 µM) | 4 to 8 µg/mL (≈ 6.58 to 13.2 µM) | < 0.25 µg/mL | 1 to 2 µg/mL (≈ 1.65 to 3.29 µM) | – | 30 to 500 µM |
| CCN1CCN(C(=O)NC(C(=O)N[C@H]2Cc3ccc(F)c(C(=O)O)c3OB2O)c2cc(O)c(O)cc2F)C(=O)C1=O (stereo partly drawn) [Example 136, (3R)-3-(2-(4-ethyl-2,3-dioxopiperazine-1-carboxamido)-2-(2-fluoro-4,5-dihydroxyphenyl)acetamido)-7-fluoro-2-hydroxy-3,4-dihydro-2H-benzo[e][1,2]oxaborinine-8-carboxylic acid] | 8 to 16 µg/mL | 1 to 2 µg/mL (≈ 1.74 to 3.47 µM) | 4 to 8 µg/mL (≈ 6.94 to 13.9 µM) | 2 to 4 µg/mL | 1 to 2 µg/mL (≈ 1.74 to 3.47 µM) | < 30 µM | – |
| CCN1CCN(C(=O)N[C@H](C(=O)N[C@H]2Cc3ccc(F)c(C(=O)O)c3OB2O)c2ccc(O)c(O)c2Cl)C(=O)C1=O [Example 188, (R)-3-((S)-2-(2-chloro-3,4-dihydroxyphenyl)-2-(4-ethyl-2,3-dioxopiperazine-1-carboxamido)acetamido)-7-fluoro-2-hydroxy-3,4-dihydro-2H-benzo[e][1,2]oxaborinine-8-carboxylic acid] | 32 to 64 µg/mL | 16 to 32 µg/mL (≈ 27 to 54 µM) | 16 to 32 µg/mL (≈ 27 to 54 µM) | 8 to 16 µg/mL | 4 to 8 µg/mL (≈ 6.75 to 13.5 µM) | – | 30 to 500 µM |
| CC(=O)NCCN1CCN(C(=O)NC(C(=O)N[C@H]2Cc3cccc(C(=O)O)c3OB2O)c2ccc(O)c(O)c2Cl)C(=O)C1=O (stereo partly drawn) [Example 228, (3R)-3-(2-(4-(2-acetamidoethyl)-2,3-dioxopiperazine-1-carboxamido)-2-(2-chloro-3,4-dihydroxyphenyl)acetamido)-2-hydroxy-3,4-dihydro-2H-benzo[e][1,2]oxaborinine-8-carboxylic acid] | 8 to 16 µg/mL | > 64 µg/mL | > 64 µg/mL | 2 to 4 µg/mL | 1 to 2 µg/mL (≈ 1.58 to 3.17 µM) | – | 30 to 500 µM |
| CCN1CCN(C(=O)NC(C(=O)N[C@H]2Cc3cccc(C(=O)O)c3OB2O)c2ncc(O)cc2F)C(=O)C1=O (stereo partly drawn) [Example 135, (3R)-3-(2-(4-ethyl-2,3-dioxopiperazine-1-carboxamido)-2-(3-fluoro-5-hydroxypyridin-2-yl)acetamido)-2-hydroxy-3,4-dihydro-2H-benzo[e][1,2]oxaborinine-8-carboxylic acid] | 2 to 4 µg/mL | 1 to 2 µg/mL (≈ 1.84 to 3.68 µM) | 1 to 2 µg/mL (≈ 1.84 to 3.68 µM) | 8 to 16 µg/mL | < 0.125 µg/mL | < 30 µM | – |
| O=C(O)c1c(F)ccc2c1OB(O)[C@@H](NC(=O)C(NC(=O)N1CCN(CCF)C(=O)C1=O)c1ccc(O)c(O)c1Cl)C2 (stereo partly drawn) [Example 131] | 2 to 4 µg/mL | 4 to 8 µg/mL (≈ 6.55 to 13.1 µM) | 4 to 8 µg/mL (≈ 6.55 to 13.1 µM) | 8 to 16 µg/mL | 0.25 to 0.5 µg/mL (≈ 0.409 to 0.819 µM) | – | 30 to 500 µM |
| CS(=O)(=O)NCCN1CCN(C(=O)NC(C(=O)N[C@H]2Cc3cccc(C(=O)O)c3OB2O)c2ccc(O)c(O)c2Cl)C(=O)C1=O (stereo partly drawn) [Example 229, (3R)-3-(2-(2-chloro-3,4-dihydroxyphenyl)-2-(4-(2-(methylsulfonamido)ethyl)-2,3-dioxopiperazine-1-carboxamido)acetamido)-2-hydroxy-3,4-dihydro-2H-benzo[e][1,2]oxaborinine-8-carboxylic acid] | 8 to 16 µg/mL | > 64 µg/mL | > 64 µg/mL | 2 to 4 µg/mL | 4 to 8 µg/mL (≈ 5.99 to 12 µM) | < 30 µM | – |
| CCN1CCN(C(=O)NC(C(=O)N[C@H]2Cc3cccc(C(=O)O)c3OB2O)c2nc(N)sc2F)C(=O)C1=O (stereo partly drawn) [Example 205, (3R)-3-(2-(2-amino-5-fluorothiazol-4-yl)-2-(4-ethyl-2,3-dioxopiperazine-1-carboxamido)acetamido)-2-hydroxy-3,4-dihydro-2H-benzo[e][1,2]oxaborinine-8-carboxylic acid] | 2 to 4 µg/mL | < 0.125 µg/mL | < 0.125 µg/mL | 8 to 16 µg/mL | < 0.125 µg/mL | < 30 µM | – |
| NCCN1CCN(C(=O)N[C@@H](C(=O)N[C@H]2Cc3ccc(F)c(C(=O)O)c3OB2O)c2ncc(O)cc2F)C(=O)C1=O [Example 230, (R)-3-((R)-2-(4-(2-aminoethyl)-2,3-dioxopiperazine-1-carboxamido)-2-(3-fluoro-5-hydroxypyridin-2-yl)acetamido)-7-fluoro-2-hydroxy-3,4-dihydro-2H-benzo[e][1,2]oxaborinine-8-carboxylic acid] | 8 to 16 µg/mL | 4 to 8 µg/mL (≈ 6.94 to 13.9 µM) | 4 to 8 µg/mL (≈ 6.94 to 13.9 µM) | 8 to 16 µg/mL | 1 to 2 µg/mL (≈ 1.74 to 3.47 µM) | < 30 µM | – |
